According to patent publication US20080146555A1, “Uses of Kinase Inhibitors and Compositions Thereof” (GPC Biotech, Inc, priority 2004, published 2008):
Structures can show the parent of a compound that is named as a salt. Where two headings read alike, the source gives them in different places.

Tests used:
A2780 = test: Calcein AM viability assay, A2780; type: cell-based; details: Homo sapiens
Description: Analogous cell viability assays against other cell lines were conducted as above. […] Protocol for the Calcein AM viability assay.
HCT-116 or IMR90 cells were recovered from sub-confluent plates by trypsinization and 1,000 or 4,000 cells, respectively, were plated in 24-well dishes and incubated overnight at 37° C., 5% CO2. HCT-116 cells were cultured in RPMI-1640, 10% FCS, and IMR90 cells were cultured in Minimum Essential Medium-alpha, 10% FCS. After overnight incubation to allow adherence, the media was aspirated from each well and replaced with media containing a test compound at a concentration from 0 to 250 nM, spanning a total of 7 doses. The plates were returned to the incubator and cultured for an additional 72 hours (3 days). […] After 72-hours incubation with the test compound, the cells were washed twice with 1×PBS, taking special care to remove all residual buffer.
A 5 μM Calcein AM solution was prepared by dissolving a 50 μg aliquot of Calcein (Molecular Probes catalog #C3100) in 50 μl DMSO. After the Calcein had completely dissolved (10 minutes at room temperature), it was diluted into 10 ml PBS. Calcein/PBS (0.5 ml) was added to each well. The plates were incubated for 75 minutes at 37° C. (protected from light) and the fluorescent signal was read on a fluorescent plate reader (excitation 485/20 and emission 530/25).

Blk = molecular target: T1, Blk (Homo sapiens, UniProt P51451); test: Blk kinase assay; type: biochemical
T1 construct: purchased Upstate 14-517
Description: • 1. 10× Reaction buffer: […], 1 mM sodium orthovanadate, 1% 2-mercaptoethanol. • 2. Enzyme Dilution Buffer (EDB): 50 mM Tris-HCl pH 7.5, 0.1 mM EGTA, 0.1 mM sodium orthovanadate, 0.1% 2-mercaptoethanol 0.03% Brij-35. • 3. Blk (human), active: Dilute to 4-40 ng/μl with EDB. Use 2.5 μl per assay point. • 4. Poly(Glu-4-Tyr) (4:1): Prepare a 1 mg/ml stock. Use 2.5 μl per assay point for a final assay concentration of 0.1 mg/ml per assay point. • 5. [γ-^32P]ATP: Stock 1 mCi/100 μl (3000 Ci/mmol, obtained from PerkinElmer, Cat. # BLU002A). Make 10 μl aliquots (100 μCi/vial). Before starting the assay, dilute an aliquot to 1 μCi/μl with 90 μl of 75 mM MgCl2 and 500 μM cold ATP in 20 mM MOPS, pH 7.2, 25 mM β-glycerol phosphate, 5 mM EGTA, 1 mM sodium orthovanadate, 1 mM dithiothreitol.
• 1. Add 2.5 μl of 10× Reaction Buffer per assay. • 2. Add 2.5 μl (0.1 mg/ml) of Poly (Glu-4-Tyr) (4:1). • 3. Add 2.5 μl (10-100 ng) of Blk (human), active. • 4. Add 7.5 μl sterile, distilled water. • 5. Add 10 μl of the diluted [γ-^32P]ATP solution. • 6. Incubate for 10 minutes at 30° C. • 7. Transfer a 20 μl aliquot onto the center of a […]. • 8. Wash the assay squares three times for 5 minutes with 0.75% phosphoric acid. • 9. Wash the assay squares once for 5 minutes with acetone. • 10. Transfer the assay squares to vial and add 1 ml scintillation cocktail. • 11. Read in scintillation counter. Compare cpm of enzyme samples to cpm of control samples that contain background control.

Fyn = molecular target: T2, Fyn (Homo sapiens, UniProt P06241); test: Fyn kinase assay; type: biochemical
T2 construct: purchased Upstate 14-441
Description: • 1. Assay Buffer: 200 mM Tris-HCl pH 7.5, 0.4 mM EGTA, 0.4 mM sodium orthovanadate. • 2. Magnesium/ATP Cocktail (Catalog #20-113): 500 μM cold ATP and 75 mM magnesium chloride in 20 mM MOPS, pH 7.2, 25 mM α-glycerol phosphate, 5 mM EGTA, 1 mM sodium orthovanadate, 1 mM dithiothreitol. • 3. [γ-^32P]ATP: Stock 1 mCi/100 μl (3000 Ci/mmol, obtained from DuPont-NEN). Make 10 μl aliquots (100 μCi/vial). Before starting the assay, dilute an aliquot with 90 μl of Magnesium/ATP Cocktail. • 4. Enzyme Dilution Buffer: 20 mM MOPS pH 7.5, 1 mM EDTA, 0.01% Brij-35, 5% glycerol, 0.1% β-mercaptoethanol, 1 mg/ml BSA. • 5. Fyn: Dilute with Enzyme Dilution Buffer to prepare a 4 ng-40 ng/μl stock. Use 2.5 μl per assay point. • 6. Src Substrate Peptide (Catalog #12-140): Dilute to 2.5 mM with distilled water. Use 2.5 μl per say point.
• 1. Add 6.25 μl of Assay Buffer per assay. • 2. Add 2.5 μl of diluted Fyn. • 3. Add 2.5 μl Src Substrate peptide (250 μM). • 4. Add 3.75 μl distilled water. • 5. Add 10 μl of the [γ-^32P]ATP solution. • 6. Incubate for 10 minutes at 30° C. • 7. Transfer a 20 μl aliquot onto the center of a 2 cm×2 cm P81 paper. • 8. Wash assay squares three times with 0.75% phosphoric acid for 5 minutes per wash. • 9. Wash assay squares once with acetone for 1-2 minutes. • 10. Transfer assay squares to a scintillation vial and add 1 ml scintillation cocktail. • 11. Read in scintillation counter. Compare cpm of enzyme samples to cpm of control samples that contain no enzyme (background control).

A129 = test: SRB cytotoxicity, A129 parental cells; type: cell-based, human; details: Homo sapiens, 72 h
Description: In these experiments, the P-glycoprotein expressing NCI-Adr resistant subline (Vickers et al., 1989. Mol Endocrinology 3 (1):157-164) was used. […] Briefly, cells were plated in 96 well dishes 24 hours prior to compound addition. Where noted, they were exposed to verapamil for 4 hours prior to compound addition and then throughout the treatment period (72 hours). The assay was terminated with the addition of cold TCA to a final concentration of 10% and the plates were incubated for one hour at 4° C. The plates were then washed 5 times with water and 100 μl of a Sulforhodamine B solution (4%) was added to each well. The plate was then incubated for 10 minutes at room temperature before removal of unbound dye by washing with 1% acetic acid.
The parental non-mutated cell line A129 was used as a control.

cells = test: Apoptosis detection (TUNEL staining, PARP cleavage); type: cell-based; details: 72 hours at 5× of the IC50 concentration
Description: In addition, PARP cleavage was also observed. Similarly, cells incubated with B16 are 90% TUNEL positive. Such assays can be used for apoptosis detection in any cells in contact with the subject compounds.

[1] = read-out: BLK Inhibition (IC50)
[2] = read-out: FYN Inhibition (IC50)

T2 sequence (P06241 whole entry): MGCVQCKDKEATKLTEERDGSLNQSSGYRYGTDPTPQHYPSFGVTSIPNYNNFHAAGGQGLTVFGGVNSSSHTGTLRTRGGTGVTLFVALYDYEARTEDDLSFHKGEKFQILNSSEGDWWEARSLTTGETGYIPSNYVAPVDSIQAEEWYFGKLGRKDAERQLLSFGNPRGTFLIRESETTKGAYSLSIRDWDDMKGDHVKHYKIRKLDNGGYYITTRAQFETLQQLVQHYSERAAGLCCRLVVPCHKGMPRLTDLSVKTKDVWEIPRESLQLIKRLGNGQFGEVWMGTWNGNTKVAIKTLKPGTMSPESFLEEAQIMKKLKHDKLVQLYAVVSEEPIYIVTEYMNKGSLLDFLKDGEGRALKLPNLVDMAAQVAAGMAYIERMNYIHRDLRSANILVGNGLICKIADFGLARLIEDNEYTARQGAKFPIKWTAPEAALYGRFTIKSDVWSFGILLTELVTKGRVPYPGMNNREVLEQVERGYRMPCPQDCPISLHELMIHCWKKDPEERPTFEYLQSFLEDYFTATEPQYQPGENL
T1 sequence (P51451 whole entry): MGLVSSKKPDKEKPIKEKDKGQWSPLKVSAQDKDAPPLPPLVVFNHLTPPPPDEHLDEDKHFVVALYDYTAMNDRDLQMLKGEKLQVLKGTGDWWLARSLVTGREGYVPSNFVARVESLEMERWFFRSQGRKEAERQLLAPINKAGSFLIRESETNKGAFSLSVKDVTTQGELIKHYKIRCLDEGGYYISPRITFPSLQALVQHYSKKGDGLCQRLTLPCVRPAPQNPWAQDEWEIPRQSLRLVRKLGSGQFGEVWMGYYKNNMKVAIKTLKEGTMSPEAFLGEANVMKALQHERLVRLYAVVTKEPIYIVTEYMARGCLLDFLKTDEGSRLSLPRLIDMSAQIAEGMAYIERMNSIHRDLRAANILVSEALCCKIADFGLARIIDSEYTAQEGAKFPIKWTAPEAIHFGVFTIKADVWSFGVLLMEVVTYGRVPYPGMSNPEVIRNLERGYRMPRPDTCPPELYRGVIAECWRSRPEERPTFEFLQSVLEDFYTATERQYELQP

Row | SMILES | IC50 (A2780) [µM] | IC50 (Blk; [1]) [µM] | IC50 (Fyn; [2]) [µM] | IC50 (A129) [µM] | PARP cleavage (cells) | TUNEL positive cells (cells) | IC50 (Blk; kinase panel, read-out: Blk IC50) [µM] | IC50 (Fyn; kinase panel, 10 μM ATP, read-out: Fyn IC50) [µM]
1 | CC(C)N1CCN(C(=O)COc2ccc(-c3n[nH]c4c3C(=O)c3c(NC(=O)NN5CCOCC5)cccc3-4)cc2)CC1 [Compound A37] | < 0.01 | < 0.1 | < 0.1 | 0.0057 | observed | about 60% | – | –
2 | COCCN1CCN(Cc2ccc(-c3n[nH]c4c3C(=O)c3c(NC(=O)NN5CCOCC5)cccc3-4)cc2)CC1 [Compound B16, N-[3-(4-{[4-(2-methoxyethyl)piperazinyl]methyl}phenyl)-4-oxoindeno[2,3-d]pyrazol-5-yl](morpholin-4-ylamino)carboxamide dihydrochloride] | < 0.01 | < 0.1 | < 0.05 | 0.0087 | – | 90% | < 0.1 | < 0.1
